{"source": "patent US20120220488A1", "about": "“HEART AGING BIOMARKERS AND METHODS OF USE” (priority 2009, published 2012)", "assay_type_in_all_cases": "in vivo", "key": {"Akt1": {"system": "Akt1", "assay": "Microarray gene expression in heart tissue, Study 2", "conditions": "Study 2, mouse heart tissue, old (30) + Resveratrol vs old; probe 1425711_a_at", "excerpt": "(§1) Two public rodent cardiac aging gene expression data sets were selected from the NCBI's Gene Expression Omnibus (GEO): (1) The University of Washington's rat study (UW) (Linford J L et al. (2007) Transcriptional Response to Aging and Calorie Restriction in Heart and Adipose Tissue. Aging Cell 6: 673-688)) (Study 1); and (2) LifeGen's mouse study (Barger J L et al. (2008) A Low Dose of Dietary Resveratrol partially Mimics Calorie Restriction and Retards Aging Parameters in Mice. PLoS ONE 3(6): 1-10) (Study 2). Materials and methods for the two studies are shown in the references. A third data set came from an unpublished mouse cardiac aging study. In that study, mice were divided into two groups (n=7) and were fed with control diet according to the proceedings in the Barger study. Mice were sacrificed at the ages of 5 months (young group) and 25 months (old group). Heart tissues were collected and subject to microarray gene expression assays (Study 3). In Study 2 and Study 3, Affymetrix mouse genome 430 2.0 gene chips were used. In Study 1, Affymetrix rat genome 230 2.0 gene chips were used. A description of the three studies is outlined in Table 1.\n(§2) Data were first inspected for quality and examined for possible outliers. Three samples, one from each Study, were identified as outliers and were removed from further analysis. Differential genes were identified between young and old groups in each Study using Significance Analysis of Microarrays (SAM) algorithm (Tusher, Tibshirani and Chu (2001) Significance analysis of microarrays applied to the ionizing radiation response. PNAS 2001 98: 5116-5121). The selection criteria include magnitude of expression change (fold>=1.2) and false discovery rate (FDR<0.5%).\n(§3) Genes in the Wnt pathway were further examined for their expressional changes. […] Those genes/proteins are listed in Table 2, along with respective representative GenBank Accession Numbers, and the Study 2 results are shown in Table 3. The expression of these genes was also examined in the calorie restricted (CR) group and resveratrol (“Resv”) group."}, "Camk2d": {"system": "Camk2d", "assay": "Microarray gene expression in heart tissue, Study 2", "conditions": "Study 2, mouse heart tissue, old (30) + Resveratrol vs old; probe 1427763_a_at", "excerpt": "as §1, §2, §3"}, "Ccnd1": {"system": "Ccnd1", "assay": "Microarray gene expression in heart tissue, Study 2", "conditions": "Study 2, mouse heart tissue, old (30) + Resveratrol vs old; probe 1448698_at", "excerpt": "as §1, §2, §3"}, "Dab2": {"system": "Dab2", "assay": "Microarray gene expression in heart tissue, Study 2", "conditions": "Study 2, mouse heart tissue, old (30) + Resveratrol vs old; probe 1430604_a_at", "excerpt": "as §1, §2, §3"}, "Dlgh1": {"system": "Dlgh1", "assay": "Microarray gene expression in heart tissue, Study 2", "conditions": "Study 2, mouse heart tissue, old (30) + Resveratrol vs old; probe 1450768_at", "excerpt": "as §1, §2, §3"}, "Magi3": {"system": "Magi3", "assay": "Microarray gene expression in heart tissue, Study 2", "conditions": "Study 2, mouse heart tissue, old (30) + Resveratrol vs old; probe 1421035_a_at", "excerpt": "as §1, §2, §3"}, "Mapk1": {"system": "Mapk1", "assay": "Microarray gene expression in heart tissue, Study 2", "conditions": "Study 2, mouse heart tissue, old (30) + Resveratrol vs old; probe 1426585_s_at", "excerpt": "as §1, §2, §3"}, "Mark2": {"system": "Mark2", "assay": "Microarray gene expression in heart tissue, Study 2", "conditions": "Study 2, mouse heart tissue, old (30) + Resveratrol vs old; probe 1435889_at", "excerpt": "as §1, §2, §3"}, "Pias4": {"system": "Pias4", "assay": "Microarray gene expression in heart tissue, Study 2", "conditions": "Study 2, mouse heart tissue, old (30) + Resveratrol vs old; probe 1455394_at", "excerpt": "as §1, §2, §3"}, "Rac1": {"system": "Rac1", "assay": "Microarray gene expression in heart tissue, Study 2", "conditions": "Study 2, mouse heart tissue, old (30) + Resveratrol vs old; probe 1423734_at", "excerpt": "as §1, §2, §3"}, "Senp2": {"system": "Senp2", "assay": "Microarray gene expression in heart tissue, Study 2", "conditions": "Study 2, mouse heart tissue, old (30) + Resveratrol vs old; probe 1425465_a_at", "excerpt": "as §1, §2, §3"}, "Smad3": {"system": "Smad3", "assay": "Microarray gene expression in heart tissue, Study 2", "conditions": "Study 2, mouse heart tissue, old (30) + Resveratrol vs old; probe 1450471_at", "excerpt": "as §1, §2, §3"}, "Ctnnb1 (beta-catenin)": {"system": "Ctnnb1 (beta-catenin)", "assay": "Microarray gene expression in heart tissue, Study 2", "conditions": "Study 2, mouse heart tissue, old (30) + Resveratrol vs old; for Fold Change Resv vs. Old, Ctnnb1(1): Ctnnb1 probe 1", "excerpt": "as §1, §2\nGenes in the Wnt pathway were further examined for their expressional changes. […] Those genes/proteins are listed in Table 2, along with respective representative GenBank Accession Numbers, and the Study 2 results are shown in Table 3. The expression of these genes was also examined in the calorie restricted (CR) group and resveratrol (“Resv”) group. […]"}, "Wnt pathway genes": {"system": "Wnt pathway genes", "assay": "Wnt pathway gene expression in aged heart, Study 2", "conditions": "Study 2, mouse aged heart; all but three of the genes of Table 2/3", "excerpt": "as §1, with “Mice were sacrificed at the ages of 5 months (young group) and 25 months (old group). Heart tissues were collected and subject to microarray gene expression assays (Study 3). In Study 2 and Study 3, Affymetrix mouse genome 430 2.0 gene chips were used. In Study 1, Affymetrix rat genome 230 2.0 gene chips were used. A description of the three studies is outlined in Table 1.” left out\nTo determine the impact of gene expression changes in the systems level, pathway analysis was conducted on the data sets from Study 2 and Study 3 using GenMAPP and MAPPFinder software (Salomonis, K Hanspers, A C Zambon, K Vranizan, S C Lawlor, K D Dahlquist, S W Doniger, J Stuart, B R Conklin, and A R Pico. GenMAPP 2: new features and resources for pathway analysis. BMC Bioinformatics, June 2007; 8: 217). […] The inventors determined that the Wnt signaling pathway was among those with most significant associations (adjusted p value of 0.011 in both the Study 2 and Study 3 data sets). […]"}}}
{"smiles": "Oc1ccc(C=Cc2cc(O)cc(O)c2)cc1", "note": "[Resv, resveratrol]", "values": [{"measurement": "Fold Change Resv vs. Old, Akt1", "setting": "Akt1", "value": "−1.315", "unit": "fold"}, {"measurement": "Fold Change Resv vs. Old, Camk2d", "setting": "Camk2d", "value": 1.235, "unit": "fold"}, {"measurement": "Fold Change Resv vs. Old, Ccnd1", "setting": "Ccnd1", "value": "−1.158", "unit": "fold"}, {"measurement": "Fold Change Resv vs. Old, Dab2", "setting": "Dab2", "value": 1.227, "unit": "fold"}, {"measurement": "Fold Change Resv vs. Old, Dlgh1", "setting": "Dlgh1", "value": 1.150, "unit": "fold"}, {"measurement": "Fold Change Resv vs. Old, Magi3", "setting": "Magi3", "value": 1.244, "unit": "fold"}, {"measurement": "Fold Change Resv vs. Old, Mapk1", "setting": "Mapk1", "value": "−1.020", "unit": "fold"}, {"measurement": "Fold Change Resv vs. Old, Mark2", "setting": "Mark2", "value": "−2.113", "unit": "fold"}, {"measurement": "Fold Change Resv vs. Old, Pias4", "setting": "Pias4", "value": "−1.495", "unit": "fold"}, {"measurement": "Fold Change Resv vs. Old, Rac1", "setting": "Rac1", "value": 1.509, "unit": "fold"}, {"measurement": "Fold Change Resv vs. Old, Senp2", "setting": "Senp2", "value": 1.261, "unit": "fold"}, {"measurement": "Fold Change Resv vs. Old, Smad3", "setting": "Smad3", "value": 1.285, "unit": "fold"}, {"measurement": "Fold Change Resv vs. Old, Ctnnb1(1)", "setting": "Ctnnb1 (beta-catenin)", "value": 2.787, "unit": "fold"}, {"measurement": "Fold Change Resv vs. Old, Ctnnb1(1)", "setting": "Ctnnb1 (beta-catenin); listed as Resveratrol", "value": 2.79, "unit": "fold"}, {"measurement": "Fold Change Resv vs. Old, Ctnnb1(2)", "setting": "Ctnnb1 (beta-catenin); Ctnnb1 probe 2", "value": 2.017, "unit": "fold"}, {"measurement": "Expression of Wnt pathway genes decreased in aged heart, after treatment", "setting": "Wnt pathway genes", "value": "elevated to their young levels"}]}
